Source: patent US10155021B2, “Antimicrobial 4-oxoquinolizines” (Emergent Product Development Gaithersburg Inc., priority 2011, dated 2018)
In brackets after ≈: the same amount, converted by molar mass. Where two headings read alike, the source gives them in different places.

What was measured:
B. thailandensis = experiment: microbe, parasite or virus in culture; format: cell-based, Burkholderia thailandensis; conditions: Burkholderia thailandensis, read-out: MIC90 B. thailandensis
S. aureus 25923 = experiment: MIC, standard panel of Gram-positive and Gram-negative bacteria (CLSI); format: cell-based, Staphylococcus aureus; conditions: Staphylococcus aureus, 25923; CAMHB; read-out: MIC S. aureus 25923
S. epidermis 12228 = experiment: as above; format: cell-based, Staphylococcus epidermis; conditions: Staphylococcus, 12228; CAMHB; read-out: MIC S. epidermis 12228
E. coli 25922 = experiment: as above; format: cell-based, Escherichia coli; conditions: Escherichia coli, 25922; CAMHB; read-out: MIC E. coli 25922
P. aeruginosa 27853 = experiment: as above; format: cell-based, Pseudomonas aeruginosa; conditions: Pseudomonas aeruginosa, 27853; CAMHB; read-out: MIC P. aeruginosa 27853
A. Baumanii OXA-51 = experiment: MIC, panel of quinolone-resistant strains (CLSI); format: cell-based; conditions: Acinetobacter baumannii; CIP R, ESBL
S. aureus SMITH = experiment: MIC, panel of quinolone-resistant strains (CLSI); format: cell-based; conditions: Staphylococcus aureus; CIP R
A. baumannii J2 [1] = experiment: MIC determination for Acinetobacter strains (Example 3); format: cell-based; conditions: LEV R, CIP R
A. baumannii A489 = experiment: as above; format: cell-based; conditions: LEV R, CIP R, MRP R, IMP R, AMK R, TET R
A. baumannii A387 [2] = experiment: as above; format: cell-based; conditions: LEV I, CIP R, IPM R, AMK R, TET R
A. baumannii A390 [3] = experiment: as above; format: cell-based; conditions: LEV R, CIP R, MRP R, IPM I, AMK R, TET I
A. baumannii A472 = experiment: as above; format: cell-based; conditions: LEV R, CIP R, MRP I, IMP I, AMK R, TET R
A. baumannii A473 = experiment: as above; format: cell-based; conditions: LEV R, CIP R, MRP R, IMP R, AMK R, TET R
[4] = tested on: 11 strains of A. baumannii and one strain of Acinetobacter sp.; experiment: Preliminary MBC without and with sub-inhibitory polymyxin B, whole panel (Example 4; also strains not listed separately); format: cell-based; conditions: for MBC: Acinetobacter baumannii, read-out: MBC without PB; for MBC +0.06 μg/ml PB: A. baumannii A14, +0.06 μg/ml polymyxin B; for MBC +[…] PB: A. baumannii NCTC 13301, +[…] polymyxin B
A. baumannii A329 = experiment: MIC without and with sub-inhibitory polymyxin B (Example 4); format: cell-based, Acinetobacter baumannii; conditions: for MIC: Acinetobacter baumannii
A. baumannii A387 [5] = experiment: as above; format: cell-based, Acinetobacter baumannii; conditions: for MIC: Acinetobacter baumannii, A387, A. baumannii A387, without polymyxin B, read-out: MIC without PB; for MIC +0.06 μg/ml PB / MIC without PB/MIC + PB: A. baumannii A387; for MIC +0.06 μg/ml PB: +0.06 μg/ml polymyxin B; for MIC without PB/MIC + PB: ratio, PB 0.06 μg/ml
A. baumannii A390 [6] = experiment: as above; format: cell-based, Acinetobacter baumannii; conditions: for MIC: Acinetobacter baumannii, A390, A. baumannii A390, without polymyxin B, read-out: MIC without PB
A. baumannii J2 [7] = experiment: Preliminary MBC without and with sub-inhibitory polymyxin B (Example 4); format: cell-based, Acinetobacter baumannii; conditions: preliminary MBC; for MBC: Acinetobacter baumannii, J2, A. baumannii J2, without polymyxin B, read-out: MBC without PB; for MBC +[…] PB: A. baumannii J2, +[…] polymyxin B
A. baumannii A387 [8] = experiment: as above; format: cell-based, Acinetobacter baumannii; conditions: for MBC: Acinetobacter baumannii, A387, A. baumannii A387, without polymyxin B, read-out: MBC without PB; for MBC +0.06 μg/ml PB: A. baumannii A387, +0.06 μg/ml polymyxin B
E. coli IMP = experiment: microbe, parasite or virus in culture; conditions: Escherichia coli, read-out: MIC E. coli IMP
A. baumannii ATCC 19606 [9] = experiment: MIC determination for Acinetobacter strains (Example 3); format: cell-based; conditions: ATCC19606, reference strain
A. baumannii ATCC 19606 [10] = experiment: Preliminary MBC without and with sub-inhibitory polymyxin B (Example 4); format: cell-based, Acinetobacter baumannii; conditions: preliminary MBC; for MBC +0.06 μg/ml PB: A. baumannii ATCC 19606, +0.06 μg/ml polymyxin B; for MBC: Acinetobacter baumannii, ATCC19606, A. baumannii ATCC 19606, without polymyxin B, read-out: MBC without PB
S. aureus 25923 HS = experiment: MIC, standard panel of Gram-positive and Gram-negative bacteria (CLSI); format: cell-based; conditions: Staphylococcus aureus, CAMHB, HS, read-out: MIC S. aureus 25923 HS
S. pneumoniae 1027 = experiment: MIC, panel of quinolone-resistant strains (CLSI); format: cell-based; conditions: Streptococcus pneumoniae, LEV R
[11] = A. baumannii A14, without polymyxin B, 1st experiment
[12] = A. baumannii A14, without polymyxin B, 2nd experiment
[13] = NCTC13301, A. baumannii NCTC 13301, without polymyxin B, 1st experiment
[14] = NCTC13301, A. baumannii NCTC 13301, without polymyxin B, 2nd experiment
[15] = A329, A. baumannii A329, without polymyxin B, 1st experiment, read-out: MIC without PB
[16] = A329, A. baumannii A329, without polymyxin B, 2nd experiment, visual reading, read-out: MIC without PB
[17] = A329, read-out: MIC +0.06 μg/ml PB, read with alamar blue, A. baumannii A329, +0.06 μg/ml polymyxin B, 2nd experiment, MIC read with alamar blue

Cc1c(-c2cc(F)c(N)cc2F)ccn2c(=O)c(C(=O)O)cc(C3CC3)c12 [Compound 2, 8-(3,6-difluoro-4-amino-phenyl)-1-cyclopropyl-9-methyl-4-oxo-quinolizine-3-carboxylic acid]
MIC90 (B. thailandensis): < 0.048 µg/mL | MIC (S. aureus 25923): < 0.008 µg/mL | MIC (S. epidermis 12228): < 0.008 µg/mL | MIC (E. coli 25922): < 0.03 µg/mL | MIC (P. aeruginosa 27853): 2 µg/mL (≈ 5.4 µM) | MIC (A. Baumanii OXA-51): 4 µg/mL (≈ 10.8 µM) | MIC (S. aureus SMITH): < 0.03 µg/mL | MIC (A. baumannii J2 [1]): 4 µg/mL (≈ 10.8 µM) | MIC (A. baumannii A489): 2 µg/mL (≈ 5.4 µM) | MIC (A. baumannii A387 [2]): 0.5 µg/mL (≈ 1.35 µM) | MIC (A. baumannii A390 [3]): 8 µg/mL (≈ 21.6 µM) | MIC (A. baumannii A472): 4 µg/mL (≈ 10.8 µM) | MIC (A. baumannii A473): 8 µg/mL (≈ 21.6 µM) | MBC [4, 11]: 16 µg/mL (≈ 43.2 µM) | MBC [4, 12]: 16 µg/mL (≈ 43.2 µM) | MBC [4, 13]: 8 µg/mL (≈ 21.6 µM) | MBC [4, 14]: 32 µg/mL (≈ 86.4 µM) | MIC (A. baumannii A329; [15]): 8 µg/mL (≈ 21.6 µM) | MIC (A. baumannii A329; [16]): 8 µg/mL (≈ 21.6 µM) | MIC (A. baumannii A329; [17]): 1 µg/mL | MIC (A. baumannii A387 [5]; 1st experiment): 0.5 µg/mL (≈ 1.35 µM) | MIC (A. baumannii A387 [5]; 2nd experiment, visual reading): 1 µg/mL (≈ 2.7 µM) | MIC (A. baumannii A390 [6]; 1st experiment): 8 µg/mL (≈ 21.6 µM) | MBC (A. baumannii J2 [7]; 2nd experiment): 8 µg/mL (≈ 21.6 µM) | MBC (A. baumannii J2 [7]; 1st experiment): 4 µg/mL (≈ 10.8 µM) | MBC (A. baumannii A387 [8]; 2nd experiment): 1 µg/mL (≈ 2.7 µM) | MIC (E. coli IMP): < 0.008 µg/mL

C[C@@H](O)[C@H]1C(=O)N2C(C(=O)O)=C(SCCN=CN)C[C@H]12 [Imipenem, reference compound]
MIC (A. baumannii ATCC 19606 [9]): 2 µg/mL (≈ 6.68 µM) | MIC (A. baumannii J2 [1]): 4 µg/mL (≈ 13.4 µM) | MIC (A. baumannii A489): 128 µg/mL (≈ 428 µM) | MIC (A. baumannii A387 [2]): 16 µg/mL (≈ 53.4 µM) | MIC (A. baumannii A390 [3]): 16 µg/mL (≈ 53.4 µM) | MIC (A. baumannii A472): 16 µg/mL (≈ 53.4 µM) | MIC (A. baumannii A473): 32 µg/mL (≈ 107 µM) | MBC +0.06 μg/ml PB ([4]; 1st experiment): 1 µg/mL | MBC +0.06 μg/ml PB ([4]; 2nd experiment): 0.5 µg/mL | MBC +[…] PB ([4]; 1st experiment): 16 µg/mL (≈ 53.4 µM) | MBC +[…] PB ([4]; 2nd experiment): 0.5 µg/mL (≈ 1.67 µM) | MBC [4, 11]: 2 µg/mL (≈ 6.68 µM) | MBC [4, 12]: 1 µg/mL (≈ 3.34 µM) | MBC [4, 13]: 128 µg/mL (≈ 428 µM) | MBC [4, 14]: 128 µg/mL (≈ 428 µM) | MIC +0.06 μg/ml PB (A. baumannii A329; A. baumannii A329, +0.06 μg/ml polymyxin B, 2nd experiment, visual reading): 128 µg/mL | MIC without PB/MIC + PB (A. baumannii A329; A. baumannii A329, ratio, PB 0.06 μg/ml, 2nd experiment): ≥1 | MIC (A. baumannii A329; [15]): 128 µg/mL (≈ 428 µM) | MIC (A. baumannii A329; [16]): > 128 µg/mL | MIC +0.06 μg/ml PB (A. baumannii A387 [5]; 1st experiment): 8 µg/mL | MIC +0.06 μg/ml PB (A. baumannii A387 [5]; 2nd experiment, visual reading): 8 µg/mL | MIC without PB/MIC + PB (A. baumannii A387 [5]; 1st experiment): 2 | MIC without PB/MIC + PB (A. baumannii A387 [5]; 2nd experiment): 2 | MIC (A. baumannii A387 [5]; 1st experiment): 16 µg/mL (≈ 53.4 µM) | MIC (A. baumannii A387 [5]; 2nd experiment, visual reading): 16 µg/mL (≈ 53.4 µM) | MIC +0.06 μg/ml PB (A. baumannii A390 [6]; A. baumannii A390, +0.06 μg/ml polymyxin B, 2nd experiment, visual reading): 4 µg/mL | MIC without PB/MIC + PB (A. baumannii A390 [6]; A. baumannii A390, ratio, PB 0.06 μg/ml, 2nd experiment): 4 | MIC (A. baumannii A390 [6]; 1st experiment): 16 µg/mL (≈ 53.4 µM) | MIC (A. baumannii A390 [6]; 2nd experiment, visual reading): 16 µg/mL (≈ 53.4 µM) | MBC +0.06 μg/ml PB (A. baumannii ATCC 19606 [10]; 2nd experiment): 1 µg/mL | MBC +0.06 μg/ml PB (A. baumannii ATCC 19606 [10]; 1st experiment): 2 µg/mL | MBC (A. baumannii ATCC 19606 [10]; 2nd experiment): 4 µg/mL (≈ 13.4 µM) | MBC (A. baumannii ATCC 19606 [10]; 1st experiment): 2 µg/mL (≈ 6.68 µM) | MBC +[…] PB (A. baumannii J2 [7]; 2nd experiment): ≤0.125 µg/mL | MBC +[…] PB (A. baumannii J2 [7]; 1st experiment): ≤0.125 µg/mL | MBC (A. baumannii J2 [7]; 2nd experiment): 8 µg/mL (≈ 26.7 µM) | MBC (A. baumannii J2 [7]; 1st experiment): 4 µg/mL (≈ 13.4 µM) | MBC +0.06 μg/ml PB (A. baumannii A387 [8]; 1st experiment): 8 µg/mL | MBC +0.06 μg/ml PB (A. baumannii A387 [8]; 2nd experiment): 8 µg/mL | MBC (A. baumannii A387 [8]; 1st experiment): 16 µg/mL (≈ 53.4 µM) | MBC (A. baumannii A387 [8]; 2nd experiment): 16 µg/mL (≈ 53.4 µM)

Cc1c(-c2cc(Cl)c(N)c(Cl)c2)ccn2c(=O)c(C(=O)O)cc(C3CC3)c12 [Compound 3, 8-(3,5-dichloro-4-amino-phenyl)-1-cyclopropyl-9-methyl-4-oxo-quinolizine-3-carboxylic acid]
MIC90 (B. thailandensis): < 0.048 µg/mL | MIC (S. aureus 25923): < 0.008 µg/mL | MIC (S. aureus 25923 HS): 1 µg/mL (≈ 2.48 µM) | MIC (E. coli 25922): < 0.03 µg/mL | MIC (P. aeruginosa 27853): 2 µg/mL (≈ 4.96 µM) | MIC (A. Baumanii OXA-51): 8 µg/mL (≈ 19.8 µM) | MIC (S. pneumoniae 1027): 2 µg/mL (≈ 4.96 µM) | MIC (A. baumannii J2 [1]): 8 µg/mL (≈ 19.8 µM) | MIC (A. baumannii A489): 4 µg/mL (≈ 9.92 µM) | MIC (A. baumannii A387 [2]): 1 µg/mL (≈ 2.48 µM) | MIC (A. baumannii A472): 32 µg/mL (≈ 79.4 µM) | MIC (A. baumannii A473): 4 µg/mL (≈ 9.92 µM) | MIC (A. baumannii A329; [15]): 16 µg/mL (≈ 39.7 µM) | MIC (A. baumannii A329; [16]): 16 µg/mL (≈ 39.7 µM) | MIC (A. baumannii A329; [17]): 1 µg/mL | MIC (A. baumannii A387 [5]; 1st experiment): 1 µg/mL (≈ 2.48 µM) | MIC (A. baumannii A387 [5]; 2nd experiment, visual reading): 1 µg/mL (≈ 2.48 µM) | MBC (A. baumannii J2 [7]; 2nd experiment): 32 µg/mL (≈ 79.4 µM) | MBC (A. baumannii J2 [7]; 1st experiment): 8 µg/mL (≈ 19.8 µM) | MBC (A. baumannii A387 [8]; 1st experiment): 1 µg/mL (≈ 2.48 µM) | MBC (A. baumannii A387 [8]; 2nd experiment): 4 µg/mL (≈ 9.92 µM)
